Reference: patent US20040024024A1, “Aromatic sulfone hydroxamates and their use as protease inhibitors” (priority 2001, published 2004)
pKi: −log10 of the molar value.

Legend:
Assay in all cases: In vitro MMP inhibition, Ki determination (fluorogenic substrate II)
Format in all cases: biochemical
[1] = biological target: T1, Human recombinant MMP-14 (Homo sapiens, UniProt P50281)
T1 construct: The catalytic domain enzyme was expressed in E. coli inclusion bodies, solubilized in urea; made in house
Method in brief: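 Refolded E. coli-expressed MMP-14 catalytic domain, APMA- or trypsin-activated, incubated 1 h at room temperature with 4 μM fluorogenic substrate II in pH 7.5 Tris/NaCl/CaCl2 buffer; fluorescence read at 330/420 nm. Ki from Morrison-equation non-linear regression, substrate at or below Km, uncorrected for substrate.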

[2] = biological target: T2, Human recombinant MMP-9 (Homo sapiens, UniProt P14780)
T2 construct: made in house; host or cells: MMP-9-transfected HT1080 cells (spent media)
T2 sequence (P14780 107-707 limits assumed): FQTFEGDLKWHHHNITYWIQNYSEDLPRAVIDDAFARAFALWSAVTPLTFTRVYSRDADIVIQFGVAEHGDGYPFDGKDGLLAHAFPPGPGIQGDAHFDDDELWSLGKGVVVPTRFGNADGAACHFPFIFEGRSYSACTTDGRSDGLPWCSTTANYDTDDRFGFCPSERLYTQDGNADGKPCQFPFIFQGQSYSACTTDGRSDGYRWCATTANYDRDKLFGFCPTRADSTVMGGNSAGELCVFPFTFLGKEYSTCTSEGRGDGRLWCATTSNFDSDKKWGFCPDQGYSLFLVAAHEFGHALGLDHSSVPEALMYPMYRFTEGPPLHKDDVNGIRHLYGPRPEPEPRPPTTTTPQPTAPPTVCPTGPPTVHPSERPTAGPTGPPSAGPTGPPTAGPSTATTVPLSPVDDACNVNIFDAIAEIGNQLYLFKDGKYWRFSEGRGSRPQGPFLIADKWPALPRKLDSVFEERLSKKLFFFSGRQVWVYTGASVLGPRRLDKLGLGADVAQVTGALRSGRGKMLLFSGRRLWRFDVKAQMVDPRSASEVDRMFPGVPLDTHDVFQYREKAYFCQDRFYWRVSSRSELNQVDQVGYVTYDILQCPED
Method in brief: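 MMP-9 proenzyme purified from transfected HT1080 cell media, activated with APMA, trypsin or recombinant MMP-3; hydroxamates diluted in pH 7.5 Tris/NaCl/CaCl2 buffer. Cleavage of 4 μM MCA/Dpa substrate II followed by fluorescence (ex 330/em 420 nm), 1 h at room temperature. Ki from Morrison-equation fit, substrate at/below Km, uncorrected.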

[3] = biological target: T3, Human recombinant MMP-1 (Homo sapiens, UniProt P03956)
T3 construct: made in house; host or cells: MMP-1-transfected HT-1080 cells (spent media)
T3 sequence (P03956 100-469): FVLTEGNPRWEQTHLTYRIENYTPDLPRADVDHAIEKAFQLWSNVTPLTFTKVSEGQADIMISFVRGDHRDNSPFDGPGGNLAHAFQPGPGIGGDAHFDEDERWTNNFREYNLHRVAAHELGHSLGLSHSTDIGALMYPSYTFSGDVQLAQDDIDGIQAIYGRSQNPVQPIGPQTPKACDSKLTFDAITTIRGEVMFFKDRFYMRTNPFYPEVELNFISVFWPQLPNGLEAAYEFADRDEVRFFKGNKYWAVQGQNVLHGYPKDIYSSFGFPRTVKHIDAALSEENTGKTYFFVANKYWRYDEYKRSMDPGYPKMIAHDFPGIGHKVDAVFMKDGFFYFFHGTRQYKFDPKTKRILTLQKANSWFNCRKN
Method in brief: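 Activated human recombinant MMP-1 (APMA- or trypsin-activated; proenzyme from transfected HT-1080 cells) incubated 1 hr at room temperature with 4 μM MCA/Dpa fluorogenic substrate II at or below Km in Tris buffer pH 7.5 with CaCl2. Fluorescence ex 330/em 420 nm; Ki from Morrison-equation non-linear regression, uncorrected for substrate.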

[4] = substrate (II) 4 μM, 1 hr room temperature, apparent Ki, values in parenthesis

Structure (SMILES) | pKi ([1]; value in parenthesis) | pKi ([2]; value in parenthesis) | pKi ([3]; value in parenthesis) | also measured
COCCN1CCC(C(=O)NO)(S(=O)(=O)c2ccc(OCCc3cccc(-c4ccccc4)c3)cc2)CC1 [Example 45] |  |  |  | pKi [1, 4]: < 5.00; pKi [2, 4]: 6.30; pKi [3, 4]: < 5.00
COCCN1CCC(C(=O)NO)(S(=O)(=O)c2ccc(OCCCc3cccc(-c4ccc(Cl)cc4)c3)cc2)CC1 [Example 50] |  |  |  | pKi [1, 4]: < 5.00; pKi [2, 4]: 6.52; pKi [3, 4]: < 5.00
COCCN1CCC(C(=O)NO)(S(=O)(=O)c2ccc(OCCCc3cccc(-c4ccc(F)c(F)c4)c3)cc2)CC1 [Example 52] |  |  |  | pKi [1, 4]: < 5.00; pKi [2, 4]: 6.21; pKi [3, 4]: < 5.00
O=C(NO)C1(S(=O)(=O)c2ccc(OCCCc3nc(-c4ccc(OC(F)(F)F)cc4)no3)cc2)CCN(Cc2ccccc2)CC1 [Example 93] | < 5.00 | 5.95 | < 5.00 | 
CC(C)c1ccc(-c2cccc(CCOc3ccc(S(=O)(=O)C4(C(=O)NO)CCOCC4)cc3)c2)cc1 [Example 109] | < 5.00 | < 5.00 | < 5.00 | 
O=C(NO)C1(S(=O)(=O)c2ccc(OCCc3cccc(-c4cc(F)cc(F)c4)c3)cc2)CCOCC1 [Example 110] | < 5.00 | 5.36 | < 5.00 | 
O=C(NO)C1(S(=O)(=O)c2ccc(OCCc3cccc(-c4cccc(F)c4)c3)cc2)CCOCC1 [Example 111] | < 5.00 | 5.57 | < 5.00 | 
O=C(NO)C1(S(=O)(=O)c2ccc(OCCc3cccc(-c4ccc(OC(F)(F)F)cc4)c3)cc2)CCOCC1 [Example 112] | < 5.00 | 5.05 | < 5.00 | 
O=C(NO)C1(S(=O)(=O)c2ccc(OCCc3cccc(-c4ccccc4Cl)c3)cc2)CCOCC1 [Example 114] | < 5.00 | 5.31 | < 5.00 | 
Cc1ccccc1-c1cccc(CCOc2ccc(S(=O)(=O)C3(C(=O)NO)CCOCC3)cc2)c1 [Example 116] | < 5.00 | 5.26 | < 5.00 | 
Cc1ccc(-c2cccc(CCOc3ccc(S(=O)(=O)C4(C(=O)NO)CCOCC4)cc3)c2)cc1C [Example 117] | < 5.00 | 5.00 | < 5.00 | 
Cc1cc(-c2cccc(CCOc3ccc(S(=O)(=O)C4(C(=O)NO)CCOCC4)cc3)c2)ccc1Cl [Example 118] | < 5.00 | < 5.00 | < 5.00 | 
COc1ccc(-c2cccc(CCOc3ccc(S(=O)(=O)C4(C(=O)NO)CCOCC4)cc3)c2)cc1C [Example 119] | < 5.00 | 5.40 | < 5.00 | 
O=C(NO)C1(S(=O)(=O)c2ccc(OCCc3cccc(-c4ccc(Cl)c(Cl)c4)c3)cc2)CCOCC1 [Example 121] | < 5.00 | < 5.00 | < 5.00 | 
O=C(NO)C1(S(=O)(=O)c2ccc(OCCc3cccc(-c4ccc(Cl)cc4Cl)c3)cc2)CCOCC1 [Example 124] | < 5.00 | < 5.00 | < 5.00 | 
O=C(NO)C1(S(=O)(=O)c2ccc(OCCc3cccc(-c4cc(Cl)cc(Cl)c4)c3)cc2)CCOCC1 [Example 126] | < 5.00 | < 5.00 | < 5.00 | 
COCCN1CCC(C(=O)NO)(S(=O)(=O)c2ccc(OCCCc3nc(-c4ccc(CC(C)C)cc4C)no3)cc2)CC1 [Example 128] | < 5.00 | 5.45 | < 5.00 | 
NC(=O)c1cccc(-c2noc(CCCOc3ccc(S(=O)(=O)C4(C(=O)NO)CCN(C5CC5)CC4)cc3)n2)c1 [Example 129] | < 5.00 | 6.96 | < 5.00 | 
COCCN1CCC(C(=O)NO)(S(=O)(=O)c2ccc(OCCCc3nc(-c4ccc(Br)cc4C)no3)cc2)CC1 [Example 135] | 5.02 | 6.34 | < 5.00 | 

Structure (SMILES) | pKi ([1]; value in parenthesis) | pKi ([2]; value in parenthesis) | pKi ([3]; value in parenthesis) | also measured
O=C(NO)C1(S(=O)(=O)c2ccc(OCCCc3nc(C4CCCCC4)no3)cc2)CCN(C2CC2)CC1 [Example 137] | < 5.00 | 6.22 | < 5.00 | 
Cc1cc(-c2cccc(CCCOc3ccc(S(=O)(=O)C4(C(=O)NO)CCOCC4)cc3)c2)ccc1Cl [Example 166] | < 5.00 | 5.06 | < 5.00 | 
Cc1cc(-c2cccc(CCCOc3ccc(S(=O)(=O)C4(C(=O)NO)CCOCC4)cc3)c2)ccc1F [Example 168] | < 5.00 | 5.19 | < 5.00 | 
O=C(NO)C1(S(=O)(=O)c2ccc(OCCCc3cccc(-c4ccc(Cl)c(Cl)c4)c3)cc2)CCOCC1 [Example 169] | < 5.00 | 5.19 | < 5.00 | 
O=C(NO)C1(S(=O)(=O)c2ccc(OCCCc3cccc(-c4ccc(F)c(F)c4)c3)cc2)CCOCC1 [Example 170] | < 5.00 | 5.82 | < 5.00 | 
O=C(NO)C1(S(=O)(=O)c2ccc(OCCCc3cccc(-c4ccc(Cl)cc4Cl)c3)cc2)CCOCC1 [Example 171] | < 5.00 | 5.18 | < 5.00 | 
O=C(NO)C1(S(=O)(=O)c2ccc(OCCCc3cccc(-c4cc(Cl)cc(Cl)c4)c3)cc2)CCOCC1 [Example 172] | < 5.00 | 5.03 | < 5.00 | 
CCCCc1ccc(-c2noc(CCCOc3ccc(S(=O)(=O)C4(C(=O)NO)CCOCC4)cc3)n2)c(C)c1 [Example 183] | < 5.00 | 5.60 | < 5.00 | 
COCCN1CCC(C(=O)NO)(S(=O)(=O)c2ccc(OCCCc3nc(-c4ccc(C5(c6ccccc6)CC5)cc4)no3)cc2)CC1 [Example 185] | < 5.00 | 6.66 | < 5.00 | 
COCCN1CCC(C(=O)NO)(S(=O)(=O)c2ccc(OCCCc3nc(-c4cccc5ccccc45)no3)cc2)CC1 [Example 199] | < 5.00 | 7.23 | < 5.00 | 
O=C(NO)C1(S(=O)(=O)c2ccc(OCCCc3ccc(F)c(-c4ccccc4)c3)cc2)CCOCC1 [Example 504] |  |  |  | pKi ([1]; value in parentheses): < 5.00; pKi ([2]; value in parentheses): 5.64; pKi ([3]; value in parentheses): < 5.00
CCCC(=O)CCCOc1ccc(S(=O)(=O)C2(C(=O)NO)CCOCC2)cc1 [Example 505] |  |  |  | pKi ([1]; value in parentheses): 6.02; pKi ([2]; value in parentheses): 7.99; pKi ([3]; value in parentheses): 6.07
CCCCC(=O)CCCOc1ccc(S(=O)(=O)C2(C(=O)NO)CCOCC2)cc1 [Example 506] |  |  |  | pKi ([1]; value in parentheses): 6.17; pKi ([2]; value in parentheses): 7.94; pKi ([3]; value in parentheses): 5.83
CCCCCCCOc1ccc(S(=O)(=O)C2(C(=O)NO)CCOCC2)cc1 [Example 507] |  |  |  | pKi ([1]; value in parentheses): 6.35; pKi ([2]; value in parentheses): 9.36; pKi ([3]; value in parentheses): 5.44
COCCN1CCC(C(=O)NO)(S(=O)(=O)c2ccc(OCCCc3cncc(-c4ccccc4)c3)cc2)CC1 [Example 508] |  |  |  | pKi ([1]; value in parentheses): 5.55; pKi ([2]; value in parentheses): 6.80; pKi ([3]; value in parentheses): 5.31
COCCN1CCC(C(=O)NO)(S(=O)(=O)c2ccc(OCCCc3cccc(-c4cccnc4)c3)cc2)CC1 [Example 509] |  |  |  | pKi ([1]; value in parentheses): 5.38; pKi ([2]; value in parentheses): 7.29; pKi ([3]; value in parentheses): < 5.00
COCCN1CCC(C(=O)NO)(S(=O)(=O)c2ccc(OCCCc3cccc(-c4cccs4)c3)cc2)CC1 [Example 510] |  |  |  | pKi ([1]; value in parentheses): 5.66; pKi ([2]; value in parentheses): 7.40; pKi ([3]; value in parentheses): < 5.00
COCCN1CCC(C(=O)NO)(S(=O)(=O)c2ccc(OCCCc3cccc(-c4cccc(F)c4)c3)cc2)CC1 [Example 511] |  |  |  | pKi ([1]; value in parentheses): < 5.00; pKi ([2]; value in parentheses): 7.41; pKi ([3]; value in parentheses): < 5.00
